Experimental data from PMC7035293, “Structural ensemble of a glutamate transporter homologue in lipid nanodisc environment” (Nature Communications, 2020).
Blank lines part the entries; values can stand above or below the compound they belong to.

What was measured:
GltTk = molecular target: T1, GltTk (Thermococcus kodakarensis, UniProt Q5JID0); experiment: cryo-EM structure of the complex in lipid nanodiscs; conditions: 300 mM Na+, aspartate binding site
T1 construct: gene TK0986; C-terminal His8 tag, expressed in E. coli MC1061 (pBAD24-derived plasmid), purified apo, reconstituted in MSP2N2 lipid nanodiscs; homotrimer
T1 sequence (Q5JID0 entry or part of it): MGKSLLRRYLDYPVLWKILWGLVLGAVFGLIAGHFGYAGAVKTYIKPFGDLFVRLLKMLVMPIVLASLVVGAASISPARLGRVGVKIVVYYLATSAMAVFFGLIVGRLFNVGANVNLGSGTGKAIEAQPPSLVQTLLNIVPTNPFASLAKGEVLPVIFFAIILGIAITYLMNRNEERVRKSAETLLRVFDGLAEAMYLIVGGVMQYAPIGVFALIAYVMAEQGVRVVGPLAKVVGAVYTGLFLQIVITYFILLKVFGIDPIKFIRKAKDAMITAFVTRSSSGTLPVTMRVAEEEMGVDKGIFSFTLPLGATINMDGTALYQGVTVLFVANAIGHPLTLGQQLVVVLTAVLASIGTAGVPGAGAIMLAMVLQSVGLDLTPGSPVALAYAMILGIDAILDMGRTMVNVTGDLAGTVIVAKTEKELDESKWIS

[1] = molecular target: glutamate transporter homologue GltTk from Thermococcus kodakarensis (Thermococcus kodakarensis) (UniProt Q5JID0); experiment: cryo-EM structure; GltTk in MSP2N2 nanodiscs (E. coli polar lipids:egg PC 3:1 w/w), 20 mM Tris-HCl pH 8.0, 300 mM NaCl; five structures: Na+-only, L-aspartate unsaturated (two structures), L-aspartate saturated, 120 uM DL-TBOA; 200 keV Talos Arctica

Compound: NC(C(=O)O)C(OCc1ccccc1)C(=O)O (racemic) [DL-TBOA]
cryo-EM structure of the complex in lipid nanodiscs (GltTk; pH 8.0, 120 uM DL-TBOA with 4.5 uM nanodiscs, competitive, outward-open state, two of three protomers occupied): The fully-outward protomers have wide open HP2 gates

Compound: N[C@@H](CC(=O)O)C(=O)O [L-aspartate]
cryo-EM structure of the complex in lipid nanodiscs (GltTk; pH 8.0, 50 uM L-aspartate with 5.6 uM nanodiscs, intermediate-outward occluded state, also sub-saturating structures 6XWO and 6XWP): density for the amino acid substrate in the binding site is observed

stoichiometry N [1]: 3
Compound: glutamate transporter homologue GltTk from Thermococcus kodakarensis (from UniProt Q5JID0 1-430) (natural protein)
